Where “and” joins values, the source holds several entries; their conditions need not be identical. Equal values may be shown once. Bridge positions count the residues as written; N and C are the ends. Square brackets hold non-standard residues; d marks the D form. Peptide text beside a SMILES is read from it.
Key:
[1] = tested on: T1, HsUCHL3; assay: Ub-AMC deubiquitination (DUB) assay, HsUCHL3; assay type: biochemical, human; conditions: peptide 25 μM, HsUCHL3 31.25 pM
T1 construct: His tag (TEV-cleavable) (cleaved yes); made in house; host or cells: bacterial cells (purified 'as described above')
Experimental: (§1) DUB assays were performed in triplicate in 384-well plates (Corning) using a CLARIOstar plus plate reader. PfUCHL3, HsUCHL3, or peptide were diluted in reaction buffer (50 mM Tris-HCl buffer, pH 7.5, 150 mM NaCl, 1 mg/mL BSA, 0.1% DMSO, and 1 mM TCEP) to 4× the desired final peptide/protein concentration (to keep DMSO concentration constant in all reactions). Protein and peptide (or 0.1% DMSO (mock)) were mixed 1:1 and incubated for 10 min at room temperature, with each enzyme complex at 2× the desired final concentration. Enzyme:peptide mixture (10 μL) and Ub-AMC (7-amino-4-methylcoumarin, Boston Biochem) (250 nM, 10 μL) were mixed in a 384-well plate. DUB activity was measured by monitoring the increase in AMC fluorescence. The kinetic trace at each concentration of peptide was corrected for background and then the initial rate of reaction was determined. The rate of reaction was plotted against the concentration of peptide to determine the IC50 using the following equation: Y=Vmax^*X/IC50+X,
(§2) where Vmax is the reaction rate in the absence of inhibitor, X is the concentration of the peptide inhibitor, and IC50 is the peptide concentration when the rate was inhibited by the peptide by 50%. The data were fitted using Prism (Graphpad).

[2] = molecular target: T2, PfUCHL3 (Plasmodium falciparum, UniProt Q8IKM8); assay: biochemical; assay type: binding; parameters: His tag (TEV-cleavable) (cleaved yes); made in house; conditions: for Kd: BLI, 25 °C
T2 sequence (Q8IKM8 1-232): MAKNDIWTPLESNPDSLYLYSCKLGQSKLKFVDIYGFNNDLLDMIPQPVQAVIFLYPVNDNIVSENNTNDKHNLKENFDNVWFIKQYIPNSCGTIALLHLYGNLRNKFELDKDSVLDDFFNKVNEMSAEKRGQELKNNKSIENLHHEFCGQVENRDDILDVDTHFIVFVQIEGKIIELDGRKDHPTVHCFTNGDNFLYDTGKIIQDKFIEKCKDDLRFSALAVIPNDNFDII
Experimental: BLI experiments were performed using a ForteBio Octet Red96 instrument at 25 °C. Measurements were performed in black 96-well plates with a well volume of 200 μL. Biotinylated Avi-tagged PfUCHL3 was prepared in a buffer containing 50 mM Tris-HCl buffer, 200 mM NaCl, 0.5 mM TCEP, pH 7.5, and loaded at 1 μg/mL for 60 s. Peptides were diluted to a 4 μM stock concentration in the same DMSO:water mix in which they were resuspended from their stock powder (approximately 4%). The final dilutions (to 400 nM, 133.3 nM, and 44.4 nM) were performed in the same buffer as for the PfUCHL3. Streptavidin-coated tips were used with a new tip for each measurement, because regeneration with PfUCHL3 attached to the tip was not possible. The association and dissociation times were 300 s. All data analysis was performed with the instrument software.

[3] = molecular target: T2, PfUCHL3; assay: Thermal shift assay (TSA) of PfUCHL3 with peptides; assay type: binding; parameters: His tag (TEV-cleavable) (cleaved yes); made in house; host or cells: bacterial cells (purified 'as described above', C41); conditions: peptide 48 pM to 25 μM, PfUCHL3 5 μM
Experimental: Thermal shift assays were performed using a Bio-Rad CFX Connect qPCR instrument, whereby the unfolding is detected by fluorescence of the hydrophobic dye Sypro Orange that binds to the unfolded state of the protein. The experiments were performed in clear-bottom, half-volume, 96-well plates using final well volumes of 25 μL, PfUCHL3 concentration of 5 μM, peptide concentrations ranging from 47 pM to 25 μM, and Sypro Orange:protein concentration ratio of 1:400. PfUCHL3, Sypro orange, and peptide were diluted to 5x concentration in buffer, 1:2,000 concentration in buffer, and 4% DMSO, respectively, before being mixed in the well to a final 1x concentration in buffer. For the PfUCHL3-only control, the peptide was replaced with 4% DMSO and for the buffer control, the PfUCHL3 was replaced with buffer in the sample mix. The samples were incubated at 20 °C for 2 min before increasing by 0.5 °C every 30 s up to 90 °C. At each temperature, the fluorescence intensity was measured using an excitation wavelength of 471 nm and an emission wavelength of 570 nm. Data analysis was performed using the GraphPad Prism software.

[4] = molecular target: T2, PfUCHL3; assay: biochemical; parameters: His tag (TEV-cleavable) (cleaved yes); made in house
Experimental: as §1, §2

Compound: CC[C@H](C)[C@@H]1NC(=O)[C@H](Cc2c[nH]c3ccccc23)NC(=O)[C@H](CC(C)C)NC(=O)[C@H](CCCNC(=N)N)NC(=O)[C@@H](Cc2c[nH]c3ccccc23)NC(=O)CSC[C@@H](C(=O)O)NC(=O)[C@H](CC(=O)O)NC(=O)[C@H](Cc2ccc(O)cc2)NC(=O)[C@H](CCCNC(=N)N)NC(=O)[C@H](CC(N)=O)NC(=O)[C@H](Cc2ccc(O)cc2)NC(=O)[C@H](CCCNC(=N)N)NC(=O)[C@H](CCCNC(=N)N)NC(=O)[C@H](CCC(=O)O)NC(=O)[C@H](CO)NC(=O)[C@H](CC(C)C)NC1=O [Peptide 60296] ({CH2CO}-[dW]RLWILSERRYNRYDC-OH; thioether N-16)
- inhibitory effect on the human UCHL3 enzyme [1]: Neither 60296 nor 60297 peptides showed any inhibitory effect
- koff [2]: 0.0053 ± 6e-05 s⁻¹
- kon [2]: 569000 ± 16000 M⁻¹ s⁻¹
- dose dependence of PfUCHL3 melting temperature [3]: increase in a dose-dependent manner

Compound: CC[C@H](C)[C@@H]1NC(=O)[C@H](Cc2ccc(O)cc2)NC(=O)[C@H](CCCNC(=N)N)NC(=O)[C@H](CCC(N)=O)NC(=O)[C@H](Cc2ccc(O)cc2)NC(=O)[C@H](CC(=O)O)NC(=O)[C@@H](Cc2c[nH]c3ccccc23)NC(=O)CSC[C@@H](C(=O)O)NC(=O)[C@H](Cc2c[nH]c3ccccc23)NC(=O)[C@H](CS)NC(=O)[C@H]([C@@H](C)O)NC(=O)[C@H]([C@@H](C)O)NC(=O)[C@H](CC(C)C)NC(=O)[C@H](CCCNC(=N)N)NC(=O)[C@H](Cc2ccccc2)NC(=O)[C@H](CCCCN)NC1=O [Peptide 58474] ({CH2CO}-[dW]DYQRYIKFRLTTCWC-OH; thioether N-16)
- koff [2]: 0.00174 ± 9e-05 s⁻¹
- kon [2]: 17100 ± 900 M⁻¹ s⁻¹
- Kd ([2]; 1:1 (1-site) model): 101 ± 7 nM

Compound: CC(C)[C@@H]1NC(=O)[C@H](Cc2ccc(O)cc2)NC(=O)[C@H](Cc2c[nH]cn2)NC(=O)[C@H](Cc2c[nH]c3ccccc23)NC(=O)[C@@H]2CCCN2C(=O)[C@H](Cc2c[nH]c3ccccc23)NC(=O)[C@H](Cc2ccccc2)NC(=O)[C@H]([C@@H](C)O)NC(=O)[C@H]([C@@H](C)O)NC(=O)[C@@H](Cc2c[nH]c3ccccc23)NC(=O)CSC[C@@H](C(=O)O)NC(=O)[C@H](CCC(N)=O)NC1=O [Peptide 60297] ({CH2CO}-[dW]TTFWPWHYVQC-OH; thioether N-12)
- Kd ([2]; complex profile fitted to heterogeneous model, the tighter of the two Kd values): 2 nM and ~2 nM
- IC50 [4]: 1440 ± 371 nM

Source: article PMC11126973, “Targeting the Plasmodium falciparum UCHL3 ubiquitin hydrolase using chemically constrained peptides” (Proceedings of the National Academy of Sciences of the …, 2024)
